Measurements from patent publication EP1808169B1, “Polyhydroxylated aromatic compounds for the treatment of amyloidosis and alpha-synuclein fibril diseases” (priority 1999, dated 2001).

Tests used:
Aβ 1-40 amyloid fibrils = assay: Modified Congo red-Aβ spectrophotometric assay: dose-dependent disaggregation of fibrillized Aβ 1-40 (overnight incubation); assay type: biochemical; conditions: overnight (~18 hours) at 37°C
Method: In this study, a Congo red-Aβ spectrophotometric assay (Klunk et al., Anal. Biochem. 266:66-76, 1999) was modified to determine the effectiveness of polyhydroxylated aromatic compounds on the disaggregation of pre-formed Aβ 1-40 amyloid fibrils. For this assay, 1 mg of Aβ 1-40 (Bachem) was incubated for 4 days in distilled water at 37°C to spontaneously produce amyloid fibrils. 25pM of fibrillized Aβ 1-40 was then incubated in triplicate with various test compounds for 3 days at 37°C in Tris-buffered saline (TBS)(100 mM Tris; 50 mM NaCl; pH 7.0, with 0.02% sodium azide), at an Aβ:compound weight ratio of 2:1. Following incubation, 50µl of 360 µM Congo red (Sigma) in distilled water was then added to 250 µl of each incubation mixture, giving a final Aβ:Congo red molar ratio of 1:3. After 10 minutes, the absorbance at 405 nm (reference wavelength to account for the absorbance of Congo red alone at 540 nm) and 540 nm (sample absorbance where "sample" refers to Aβ alone, test compound alone, or Aβ plus test compound, all in the presence of Congo red) was determined using a Biorad Model 550 BLISA Plate Reader (Biorad, Hercules, CA, USA). The absorbance at wavelength 405 nm was automatically subtracted by the ELISA plate reader from the absorbance at wavelength 540 nm (difference is referred to as Δ absorbance)(see Klunk et al. cited above). Therefore, the Δ absorbance reading at 540 nm was proportional to the amount of aggregated Aβ left in solution (Klunk et al.).
For all experiments involving test compounds, the Δ absorbance reading at 540 nm of the test compound alone (in the absence of Aβ), was always subtracted from the corresponding Δ absorbance reading at 540 nm of the test compound in the presence of Aβ. Using this modification of the method of Klunk et al., the use of a greater final concentration of Congo red, i.e. 60µM instead of 14µM, in the presence of fibrillar Aβ gave an overall absorbance at 540 nm that was always below 1.0 Absorbance Unit (AU), and well within the linear absorbance range.
In this study, the potential dose-dependent effects of tannic acid and gallic acid on the disaggregation of fibrillized Aβ 1-40 was assessed. In this experiment, the modified Congo red-Aβ spectrophotometric assay (Klunk et al, Anal. Biochem. 266:66-76, 1999) was used as described above (i.e. Example 4). However, in this specific experiment increasing amounts of tannic acid or gallic acid (i.e. 25µg/ml, 50µg/ml, 75µg/ml and 100µg/ml) were tested following an overnight (~18 hours) incubation at 37°C in the presence of 25pM of Aβ 1.40 (Bachem).

Aβ 1-42 amyloid fibrils = assay: Thioflavin T fluorometry: disassembly/disruption of pre-formed Aβ 1-42 amyloid fibrils; assay type: biochemical; conditions: overnight (~18 hours) at 37°C, pH 7.0, mean of triplicate ± standard deviation
Method: For the first study, 1 mg of Aβ 1-42 (Bachem Inc., Torrance, CA, USA) was dissolved in 1.0 ml of double distilled water (1 mg/ml solution). 25 µM of Aβ 1-42 was then incubated overnight (~18 hours) at 37°C, in the absence or presence of 100µg/ml of the following compounds: 1) EDTA (Sigma Chemical Company, St. Louis, MO, USA), 2) myricetin (Acros, Somerville, New Jersey, USA), 3) exifone (Acros) 4) pyrogallol (Sigma), 5) tannic acid (Acros), 6) pyrocatechol (Acros), 7) quercetin (Sigma), 8) ellagic acid (Acros), 9) 1,2,4-benzenetriol (Acros), 10) 5-hydroxydopamine (Acros), 11) gallamide hydrate (Acros), 12) gallic acid (Sigma), 13) ethyl gallate (Acros), 14) quinic acid (Acros), 15) propyl gallate (Sigma), and 16) phloroglucide (Acros), each in the presence of 150 mM Tris HCl, 10 mM NaCl (pH 7.0) with 0.02% sodium azide. In this study, the Aβ 1-42:compound weight ratio was 1:1.
For the second study, 1 mg of Aβ 1-42 (Bachem) was dissolved in 1.0 ml of double distilled water (1 mg/ml solution). 25 µM of Aβ 1-42 was then incubated overnight (~18 hours) at 37°C, in the absence or presence of 50µg/ml of the following compounds: 1) gallic acid, 2) ethyl gallate, 3) quinic acid, 4) gallamide trihydrate, 5) ellagic acid, 6) propyl gallate, and 7) pyrogallol, each in the presence of 150 mM Tris HCl, 10 mM NaCl (pH 7.0) with 0.02% sodium azide. In this study, the Aβ 1-42:compound weight ratio was 2:1.
Thioflavin T is known to bind to fibrillar amyloid proteins, and an increase in fluorescence correlates with an increase in amyloid fibril formation, whereas a decrease in fluorescence correlates with a decrease in amyloid fibrils due to disassembly and/or disruption. The Alzheimer's Aβ protein (1-42) when placed in solution, such as distilled water, tends to spontaneously form amyloid fibrils. Using this sensitive assay, any decreases or increases in fluorescence was previously shown to correlate with a decrease or increase in the amount of amyloid fibrils (see the documents cited above), allowing one to identify and quantitate the extent of potential inhibitors and/or enhancers of Alzheimer's Aβ 1-42 amyloid fibrils.
To assess the effects of each compound on potential disassembly/ disruption of preformed Aβ 1-42 fibrils, 50 µl of Aβ 1-42 with or without test compounds (described above) were added to 1.2 ml of 100µM Thioflavin T (Sigma) in 50mM NaH2PO4 (pH 6.0) for fluorometry readings. […] Fluorescence emission at 482 nm was measured on a Turner instrument-model 450 fluorometer at an excitation wavelength of 450 nm. For each determination, the fluorometer was calibrated by zeroing in the presence of the Thioflavin T reagent alone, and by setting the 50 ng/ml riboflavin (Sigma Chemical Co., St. Louis, MO) in the Thioflavin T reagent to 1800 fluorescence units. All fluorescence determinations were based on these references and any fluorescence given off by any of the compounds in the presence of the Thioflavin T reagent was always subtracted from all pertinent readings.
For all fibrillogenesis studies utilizing Thioflavin T fluorometry, as disclosed herein, comparisons of amyloid protein in the presence or absence of test compounds were based on paired Student's t tests with data shown as the mean of triplicate measurements ± standard deviation.

[1] = w/w ratio 2:1 (50µg/ml compound)
[2] = w/w ratio 4:1 (25µg/ml compound)
[3] = w/w ratio 4:3 (75µg/ml compound)

| SMILES | Decrease in absorbance, %, at the Aβ 1-40:compound w/w ratios given (Aβ 1-40 amyloid fibrils; w/w ratio 1:1 (100µg/ml compound)) [%] | Decrease in absorbance, %, at the Aβ 1-40:compound w/w ratios given (Aβ 1-40 amyloid fibrils; [1]) [%] | Decrease in absorbance, %, at the Aβ 1-40:compound w/w ratios given (Aβ 1-40 amyloid fibrils; [2]) [%] | Decrease in absorbance, %, at the Aβ 1-40:compound w/w ratios given (Aβ 1-40 amyloid fibrils; [3]) [%] | Fluorescence inhibition, %, at the Aβ 1-42:compound w/w ratios given (Aβ 1-42 amyloid fibrils; Aβ 1-42:compound w/w ratio 1:1, 25 µM Aβ 1-42, 100µg/ml compound) [%] | Fluorescence inhibition, %, at the Aβ 1-42:compound w/w ratios given (Aβ 1-42 amyloid fibrils; Aβ 1-42:compound w/w ratio 2:1, 25 µM Aβ 1-42, 50µg/ml compound) [%] |
| --- | --- | --- | --- | --- | --- | --- |
| O=C(OC[C@H]1O[C@@H](OC(=O)c2cc(O)c(O)c(OC(=O)c3cc(O)c(O)c(O)c3)c2)[C@H](OC(=O)c2cc(O)c(O)c(OC(=O)c3cc(O)c(O)c(O)c3)c2)[C@@H](OC(=O)c2cc(O)c(O)c(OC(=O)c3cc(O)c(O)c(O)c3)c2)[C@@H]1OC(=O)c1cc(O)c(O)c(OC(=O)c2cc(O)c(O)c(O)c2)c1)c1cc(O)c(O)c(OC(=O)c2cc(O)c(O)c(O)c2)c1 [Tannic acid, tannic acid] | 61 ± 11.1 | 48 ± 6.8 | 42 ± 5.2 | 59 ± 6.4 | 77 ± 1.3 | – |
| O=C(O)c1cc(O)c(O)c(O)c1 [Gallic acid, gallic acid] | – | 22 ± 4.0 | 17 ± 9.5 | 30 ± 6.0 | – | 44 ± 1.7 |
